# Like-named read-outs stand apart in the source and are kept apart here.
# What was measured:
# EAE [1] = assay: Reversal of EAE induced by adoptive transfer of L87-99 T cells; assay type: in vivo, rat
# EAE [2] = settings: rat, in vivo
# Experimental: In addition, as a safety measure, but not essential to this invention, suitable peptide analogues may be tested for direct induction of EAE. As described in detail in Example 2, various amounts of peptide analogues are injected at the base of the tail of rats, and the rats examined daily for signs of EAE. A peptide analogue which is not considered to cause EAE has a mean cumulative score of less than or equal to 1 over seven days when 1 mg (5 mg/kg) in complete Freund's adjuvant is injected.
# MBP peptides and analogues were dissolved in phosphate-buffered saline (PBS) and emulsified with an equal volume of incomplete Freund's adjuvant supplemented with 4 mg/ml heat-killed Mycobacterium tuberculosis H37Ra in oil (Difco Laboratories, Inc., Detroit, Mich.). Rats were immunized subcutaneously in the hind foot pads with 0.1 ml of the emulsion and were monitored for clinical signs daily by an observer blind to the treatment protocol. For intravenous injections MBP peptides and analogues were dissolved in normal saline. EAE was scored as follows: 0, clinically normal; 1, flaccid tail; 2, hind limb paralysis; 3, front and hind limb paralysis.
# The ability of peptide analogues to cause EAE is assessed in vivo. Rats were injected with MBP (87-99) or (91K>A) peptide analogue as described in Example 2. Animals were monitored daily for evidence of EAE. Rats receiving MBP (87-99) had 100% incidence (18/18 rats) of EAE with a mean maximum clinical score of 2.4±0.2. In contrast, 0/12 rats receiving the peptide analogue (91k>A) had EAE.
# [3] = tested on: IFN-γ production from draining lymph node cells; assay: IFN-γ production by draining lymph node cells (ELISA); assay type: cell-based, rat; settings: all doses; supernatant after 48 hours; FIG. 7
# Experimental: (§1) FIG. 7 are a pair of graphs showing the amount of IFN-γ and TNF-α production from draining lymph node cells (DLNC). DLNC were stimulated with MBP (87-99) alone (●) or with the peptide analogue (91K>A) (▪).
# (§2) Cytokine production in draining lymph node cells from rats injected with MBP (87-99) alone or with the peptide analogue (91K>A) was determined. IFN-γ and TNF-α production were measured.
# (§3) Draining lymph node cells (10^7 cells/ml) were stimulated in vitro with different concentrations of MBP (87-99) or peptide analogue. Supernatants were collected after 24 and 48 hours. IFN-γ was determined after 48 hours by use of a rat IFN-γ ELISA kit (GIBCO BRL). TNF-α was measured after 24 hours by ELISA kit (Genzyme Corp., Cambridge, Mass.).
# [4] = tested on: lymph node cells (LNC) reactive to MBP (87-99); assay: Antigen-specific lymph node cell proliferation assay; assay type: cell-based, Lewis rat; settings: 10 μM peptide, 3 days, [3H]-thymidine; FIG. 4
# Experimental: FIG. 4 is a graph displaying the proliferative response of MBP-reactive lymph node cells to position 91-substituted analogues. Two different substitutions were tested. The proliferative response of lymph node cells to 10 μM of MBP (87-99), motilin, A91 or K91 was determined. Proliferation is shown as counts per minute. BKG, no peptide added; 87-99, MBP (87-99); motilin, an unrelated peptide; A91, peptide analogue with alanine at position 91; K91, peptide analogue with D-lysine at position 91.
# As an alternative to the use of T cell lines as described above, draining lymph node cells from Lewis rats immunized with MBP (87-99) may be used. […] Cultures are harvested on fiberglass filters and counted in a scintillation counter. Mean CPM and the standard error of the mean are calculated from data determined in triplicate cultures. […]
# For the assay, 100 μl of the lymph node suspension was added to 96-well flat-bottom wells in the presence of an equal volume of medium containing 10 μM of various peptides (including: motilin as a negative control; MBP87-99; medium only, or alanine or D-amino acid substituted at position 91). […] The plates were then harvested with a Matrix filtermate harvester (Packard) and counted using an Automatic Direct Beta Counter (Packard). Mean cpm and the standard error of the mean were calculated from triplicate wells.
# [5] = tested on: anti MBP (87-99) T cell line L87-99; assay type: cell-based, rat; settings: all concentrations, 10^-4 μM to 10^-2 μM analogue; APC prepulsed with 0.2 μM native peptide; FIG. 5
# Experimental: FIG. 5 is a graph illustrating the ability of alanine-substituted analogues to antagonize T cells. […] Results are shown as stimulation index ±SE.
# The second or alternative assay is a competition assay for T cell proliferation. In this assay, antigen presenting spleen cells are first irradiated and then incubated with native MBP (87-99) peptide for 2-4 hours. These cells are then washed and further cultured with T cells reactive to MBP (87-99). Various concentrations of candidate peptide analogues are included in cultures for an additional 3 days. Following this incubation period, each culture is pulsed with 1 μCi of [^3H]-thymidine for an additional 12-18 hours. Cultures are then harvested on fiberglass filters and counted as above. Mean CPM and standard error of the mean are calculated from data determined in triplicate cultures. Peptide analogues which inhibit proliferation to approximately 25% at a concentration of 50 μM or greater are suitable for further screening.
# T cell antagonism was detected in a prepulsed proliferation assay as described by De Magistris et al. (Cell […]:625, 1992) with minor modifications. […] The cultures were then harvested on fiberglass filters and the proliferative response expressed as CPM±SD or as stimulation index (mean CPM from test cultures divided by mean CPM from control cultures).
# EAE [6] = assay: Prevention of EAE by co-injection of the peptide analogue with an EAE-inducing peptide; assay type: in vivo, rat
# [7] = tested on: TNF-α production from draining lymph node cells; assay: TNF-α production by draining lymph node cells (ELISA); assay type: cell-based, rat; settings: all doses greater than 20 μM; supernatant after 24 hours; FIG. 7
# Experimental: as §1, §2, §3
# [8] = as Peptide 2, co-injected with Peptide 1 MBP(68-88), ratio 1:1
# [9] = as Peptide 2, co-injected with Peptide 1 MBP(87-99), ratio 1:1, in complete Freund's adjuvant
structure (smiles),measurement,setting,value
CC[C@H](C)[C@H](NC(=O)[C@H](CC(N)=O)NC(=O)[C@H](C)NC(=O)[C@H](Cc1ccccc1)NC(=O)[C@H](Cc1ccccc1)NC(=O)[C@H](Cc1c[nH]cn1)NC(=O)[C@@H](N)C(C)C)C(=O)N[C@H](C(=O)N[C@H](C(=O)N1CCC[C@H]1C(=O)N[C@@H](CCCNC(=N)N)C(=O)N[C@H](C(=O)N1CCC[C@H]1C(=O)O)[C@@H](C)O)[C@@H](C)O)C(C)C [91K>A],time to complete remission,EAE [1]; after single injection (2 mg/ml) of soluble analogue,≤ 36 h
same,rats going into complete remission without further signs of paralysis,"EAE [1]; single injection (2 mg/ml) of soluble analogue to rats with hind limb paralysis, 5 days after 10^7 L87-99 T cells, p<0.015",six out of six
same,EAE Incidence,EAE [2],0/12
same,EAE Mean Maximum Clinical Score,EAE [2],0
same,incidence of EAE (rats with EAE / rats injected),EAE [2],0/12
same,IFN-γ production (in words),[3],marked decrease in cytokine production
same,proliferative response of MBP (87-99)-reactive lymph node cells (in words),[4],failed to respond as well
same,antagonism of the response of L87-99 to native peptide (in words),[5],effectively antagonize
same,EAE Incidence,EAE [6]; [8],6/6
same,EAE Mean Maximum Clinical Score,EAE [6]; [8],3 ± 0
same,EAE Incidence,EAE [6]; [9],0/12
same,EAE Mean Maximum Clinical Score,EAE [6]; [9],0
same,inhibition of induction of EAE by MBP (68-88) (in words),EAE [6]; co-immunization,not inhibit induction of EAE
same,inhibition of induction of EAE by MBP (87-99) (in words),EAE [6]; co-immunization,could specifically inhibit induction of EAE
same,TNF-α production (in words),[7],marked decrease in cytokine production

# Reference: US6489299B2, “Methods for treatment of multiple sclerosis using peptide analogues at position 91 of human myelin basic protein” (Stanford University Medical Center, priority 1994, dated 2002)
